Like-named read-outs stand apart in the source and are kept apart here.
Key:
[1] = molecular target: T1, bovine serum albumin (BSA) (Bos taurus, UniProt P02769); conditions: ref Allendorf et al. (2019), cited from earlier work; for Ka (association constant): PFAS-BSA binding
[2] = molecular target: T1, bovine serum albumin (BSA); test: Equilibrium dialysis; type: binding; conditions: for f (fraction of bound PFAS) / KPW (protein/water partition coefficient): 37°C, standard error in parentheses; for f (fraction of bound PFAS): 10 µM BSA in PBS
[3] = molecular target: T1, bovine serum albumin (BSA); test: Fluorescence quenching of BSA by PFAS; type: binding; conditions: for nHill (Hill coefficient, binding cooperativity): Hill model fit, 25°C and 35°C, independent of temperature; for shift in wavelength of maximum fluorescence emission of BSA: maximum shift on PFAS binding (Figure S5)
[4] = test system: serum albumin; conditions: ref Bischel et al. (2011); cited from earlier work

T1 sequence (P02769 25-607): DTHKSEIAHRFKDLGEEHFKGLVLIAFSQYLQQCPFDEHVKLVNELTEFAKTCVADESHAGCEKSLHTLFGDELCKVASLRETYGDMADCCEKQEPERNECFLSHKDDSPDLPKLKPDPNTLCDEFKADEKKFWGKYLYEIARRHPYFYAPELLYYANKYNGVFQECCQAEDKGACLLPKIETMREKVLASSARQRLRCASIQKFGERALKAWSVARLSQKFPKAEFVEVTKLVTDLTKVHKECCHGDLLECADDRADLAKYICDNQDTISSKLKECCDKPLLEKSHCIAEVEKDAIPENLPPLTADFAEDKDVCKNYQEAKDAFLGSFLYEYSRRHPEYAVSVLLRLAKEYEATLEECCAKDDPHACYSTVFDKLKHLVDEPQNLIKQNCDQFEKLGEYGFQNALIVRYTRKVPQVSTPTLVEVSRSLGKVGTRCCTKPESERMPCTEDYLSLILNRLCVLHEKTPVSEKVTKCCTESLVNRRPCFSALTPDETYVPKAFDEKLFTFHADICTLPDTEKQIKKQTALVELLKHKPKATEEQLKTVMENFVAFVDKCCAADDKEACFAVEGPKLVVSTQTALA

| SMILES | Ka (association constant) [1] | f (fraction of bound PFAS) [2] | KPW (protein/water partition coefficient) ([2]; PFAS:BSA molar ratio 2:1) | nHill (Hill coefficient, binding cooperativity) [3] | shift in wavelength of maximum fluorescence emission of BSA [3] | f (fraction of bound PFAS) [1] | fa (fractional accessibility, modified Stern-Volmer equation) ([3]; 1.25 µM BSA, pH 7.4 PBS, values from Table S3) | f (fraction of bound PFAS) [4] | KPW (protein/water partition coefficient) ([2]; PFAS:BSA molar ratio 0.1:1) | Kd [2] [nM] |
| --- | --- | --- | --- | --- | --- | --- | --- | --- | --- | --- |
| O=C(O)C(F)(OC(F)(F)C(F)(F)C(F)(F)F)C(F)(F)F (stereo not shown) [Gen X, 2,3,3,3-tetrafluoro-2-(heptafluoropropoxy)propanoate] | 0.23 (0.05) 10^5 M^−1 | 0.265 (0.006) | 0.07 (0.002) 10^5 | noncooperative | do not show marked shifts | – | – | – | – | – |
| O=S(=O)(O)C(F)(F)C(F)(F)C(F)(F)C(F)(F)F [PFBS, perfluorobutanesulfonic acid] | 1.1 (0.28) 10^5 M^−1 | 0.249 (0.064) | 0.07 (0.02) 10^5 | < 1 | do not show marked shifts | 0.44 | ~ 0.3 | ≥ 0.99 | – | – |
| O=C(O)C(F)(F)C(F)(F)C(F)(F)C(F)(F)C(F)(F)C(F)(F)C(F)(F)C(F)(F)C(F)(F)F [PFDA, perfluorodecanoic acid] | 36 (3.1) 10^5 M^−1 | 0.983 (0.004) | – | < 1 | −10 nm | – | – | – | 12.66 (3.23) 10^5 | – |
| O=S(=O)(O)C(F)(F)C(F)(F)C(F)(F)C(F)(F)C(F)(F)C(F)(F)F [PFHxS, perfluorohexanesulfonic acid] | 44 (3.5) 10^5 M^−1 | 0.842 (0.008) | – | positive binding cooperativity | −10 nm | 0.62 | – | ≥ 0.99 | 1.11 (0.06) 10^5 | 1540 |
| O=C(O)C(F)(F)C(F)(F)C(F)(F)C(F)(F)C(F)(F)C(F)(F)C(F)(F)C(F)(F)F [PFNA, perfluorononanoic acid] | 14 (2.2) 10^5 M^−1 | 0.975 (0.005) | – | noncooperative | −13 nm | – | – | – | 8.52 (1.62) 10^5 | – |
| O=C(O)C(F)(F)C(F)(F)C(F)(F)C(F)(F)C(F)(F)C(F)(F)C(F)(F)F [PFOA, perfluorooctanoic acid] | 11 (1.1) 10^5 M^−1 | 0.755 (0.038) | – | positive binding cooperativity | – | 0.44 | – | ≥ 0.99 | 0.66 (0.13) 10^5 | 2650 |
| O=S(=O)(O)C(F)(F)C(F)(F)C(F)(F)C(F)(F)C(F)(F)C(F)(F)C(F)(F)C(F)(F)F [PFOS, perfluorooctanesulfonic acid] | 32 (4.9) 10^5 M^−1 | 0.942 (0.004) | – | positive binding cooperativity | −7 nm | – | – | – | 3.39 (0.27) 10^5 | – |
